Source: ChEMBL document CHEMBL1201862, “PubChem BioAssay data set” (2004)
pIC50: −log10 of the molar value. The source made the active and inactive calls.

Columns and labels:
[1] = biological target: Neuropeptide Y receptor type 2 (Homo sapiens, UniProt P49146); format: functional, cell-based;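 further: HEK293 cells expressing the receptor and a CNG channel; stimulus was NPY near EC95 followed by isoproterenol to raise cAMP; antagonist potency measured as restoring cAMP signal that NPY suppresses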
[2] = biological target: T1, Rac GTPase-activating protein 1 (Homo sapiens, UniProt Q9H0H5); assay: blockers of MgcRacGAP-driven Rac1 GTP hydrolysis – biochemical, ADP Hunter fluorescence, primary and confirmatory, confirmation (AID 624330); format: functional
T1 sequence (Q9H0H5 whole entry): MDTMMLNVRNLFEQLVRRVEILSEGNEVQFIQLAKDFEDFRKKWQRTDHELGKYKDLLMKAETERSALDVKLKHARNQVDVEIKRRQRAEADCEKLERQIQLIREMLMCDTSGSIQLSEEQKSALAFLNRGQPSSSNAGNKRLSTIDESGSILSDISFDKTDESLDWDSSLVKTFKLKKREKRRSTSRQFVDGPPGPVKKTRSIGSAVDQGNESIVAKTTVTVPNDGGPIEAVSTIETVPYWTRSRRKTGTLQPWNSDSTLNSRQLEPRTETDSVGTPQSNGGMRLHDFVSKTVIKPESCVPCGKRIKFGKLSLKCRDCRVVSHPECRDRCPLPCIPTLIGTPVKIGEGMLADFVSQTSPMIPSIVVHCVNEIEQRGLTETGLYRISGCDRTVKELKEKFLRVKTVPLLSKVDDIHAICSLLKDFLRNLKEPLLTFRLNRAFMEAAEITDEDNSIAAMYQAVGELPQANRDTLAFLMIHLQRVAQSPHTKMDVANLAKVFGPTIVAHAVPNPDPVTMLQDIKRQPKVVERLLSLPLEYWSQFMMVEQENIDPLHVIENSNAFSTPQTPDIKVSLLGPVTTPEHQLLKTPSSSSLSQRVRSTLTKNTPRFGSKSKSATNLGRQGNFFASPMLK

[3] = viability loss in HeLa cells – cytotoxicity control for MgcRacGAP inhibitor project, dose response (AID 624300); format: functional
[4] = biological target: Neuropeptide Y receptor type 1 (Homo sapiens, UniProt P25929); format: functional;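 further: HEK293 cells with a CNG channel challenged with NPY then isoproterenol; potency as antagonist that reverses NPY suppression of cAMP signal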
Beta-galactosidase = Beta-galactosidase (Escherichia coli, UniProt Q8VNN2); format: functional
Beta Lactamase = Beta Lactamase (Pseudomonas aeruginosa, UniProt Q932Y6); assay: BLA reporter interference, concentration series – BLA reporter cells, FRET fluorescence, artefact control for NOD2-RIPK2 interaction inhibitor project, dose response (AID 651552); format: functional, cell-based
[5] = biological target: T2, Kappa-type opioid receptor (Homo sapiens, UniProt P41145); format: functional
[6] = Fluorescence-based cell-based high throughput dose response assay for inhibitors of the interaction of nucleotide-binding oligomerization domain containing 2 (NOD2) and the receptor-interacting serine-threonine kinase 2 (RIPK2).; format: functional; conditions: Homo sapiens
[7] = biological target: T2, Kappa-type opioid receptor; format: functional; remark: listed apart in the source
[8] = biological target: T3, Microphthalmia-associated transcription factor (Homo sapiens, UniProt O75030); assay: reducers of TRPM1 reporter luminescence, concentration series – cell-based, SK-MEL-5, cherry-picked, set 3, MITF inhibitor project, dose response (AID 493073); format: functional;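 further: SK-MEL-5 melanoma cells with luciferase driven by the MITF target TRPM1 promoter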
T3 sequence (O75030 whole entry): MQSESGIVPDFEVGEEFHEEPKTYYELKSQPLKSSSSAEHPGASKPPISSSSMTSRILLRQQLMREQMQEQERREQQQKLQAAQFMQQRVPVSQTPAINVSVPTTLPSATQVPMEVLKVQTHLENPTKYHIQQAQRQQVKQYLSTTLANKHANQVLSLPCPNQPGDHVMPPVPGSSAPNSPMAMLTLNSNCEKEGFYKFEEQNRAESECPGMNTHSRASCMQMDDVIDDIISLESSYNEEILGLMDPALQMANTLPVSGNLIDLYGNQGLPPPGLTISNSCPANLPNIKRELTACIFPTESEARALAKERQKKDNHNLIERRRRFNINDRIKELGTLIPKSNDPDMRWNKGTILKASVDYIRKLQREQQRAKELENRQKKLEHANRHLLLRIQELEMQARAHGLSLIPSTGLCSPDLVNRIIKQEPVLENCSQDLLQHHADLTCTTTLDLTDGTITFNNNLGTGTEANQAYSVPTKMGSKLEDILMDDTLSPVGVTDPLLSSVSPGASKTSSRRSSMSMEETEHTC

[9] = biological target: Luciferin 4-monooxygenase (Photinus pyralis, UniProt P08659); assay: Counter Screen for Luciferase-based Assay Positives. [Related pubchem assays: 620, 618, 411 ]
HT-1080 = assay: HT1080 cell viability loss – fluorescence readout (AID 620); format: functional, cell-based; conditions: Homo sapiens
[10] = mitochondrial function rescue without frataxin homolog – Friedreich's ataxia, plus single-dose screen, dose response (AID 1465); format: functional;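 further: yeast depleted of Yfh1p frataxin homolog grown on glycerol needing respiration; WST-1 tetrazolium dye reduction as measure of cellular dehydrogenase metabolic activity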
[11] = Luminescence-based counterscreen assay for KLF5 inhibitors: dose response cell-based high throughput screening assay to identify cytotoxic compounds using the IEC-6 intestinal epithelial cell line. [Related pubchem assays: 1700 (Primary screen.), 1834 (Confirmation screen.), 1858 (Summary AID.), 1905 (Counterscreen.)]; format: functional
BJ [12] = assay: BJ-TERT fibroblast viability loss – cell-based, RAS-independent, luminescence, dose response (AID 1933); format: functional; conditions: Homo sapiens
BJ [13] = assay: cells; format: functional, cell-based; conditions: Homo sapiens
[14] = DRD fibroblast viability loss – cell-based, non-viral oncogenic, luminescence, dose response (AID 1934); format: functional; conditions: Homo sapiens
BJ [15] = assay: BJ-TERT-LT-ST fibroblast viability loss – cell-based, RAS-independent, luminescence, dose response (AID 1935); format: functional; conditions: Homo sapiens;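 further: BJ fibroblasts immortalized with TERT plus LT and ST oncogenes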
BJ [16] = assay: growth inhibition of engineered Ras-driven BJ cells – cell-based, alamar blue fluorescence, cherrypicked samples, dose response (AID 2631); format: functional; conditions: Homo sapiens;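 further: confirmatory dose-response assay in RAS-dependent BJ fibroblasts engineered with TERT, LT and ST, with cytotoxicity read by fluorescence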
[17] = Luminescence Cell-Based Dose Response HTS to Identify Inhibitors of 5'UTR Stem-Loop Driven Prion Protein mRNA Translation in H4 Neuroglioblastoma Cells. [Related pubchem assays: 1827 (Project Summary), 1813 (Primary HTS)]; format: functional
Vero [18] = assay: cells; format: functional; conditions: Chlorocebus sabaeus
[19] = luciferase reporter signal suppression in cells – H4 neuroglioma cells, luminescence, dose response (AID 1990); format: functional, cell-based
[20] = alpha-synuclein stem-loop luciferase translation blockers – H4 neuroglioma cells, luminescence, confirmation (AID 1988); format: functional, cell-based
[21] = Luminescence Cell-Based Dose Retest to Confirm Inhibitors of Cancer Stem Cells. [Related pubchem assays (depositor defined):AID2717, AID2721]; format: functional, Homo sapiens
[22] = HEK-293T viability loss after treatment – luminescence, T-cell screen hits, cytotoxicity control for TCR NF-kB inhibitor project, dose response (AID 489026); format: functional, cell-based;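 further: cells exposed to compound about 14 hours before the viability readout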
Vero [23] = assay: cells; format: functional, cell-based; conditions: Chlorocebus sabaeus
Paired box protein Pax-8 = Paired box protein Pax-8 (Homo sapiens, UniProt Q06710); assay: PAX8 transcriptional activity inhibition in RMG-I – RMG-I cells, luciferase, cherry-pick, dose response (AID 687027); format: functional, cell-based;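 further: luciferase reporter driven by Pax8 target thyroperoxidase promoter measured by SteadyGlo luminescence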
Vero [24] = assay: mammalian cell viability reduction – secondary assay, cytotoxicity control for West Nile virus antiviral project, dose response (AID 1650); format: functional; conditions: Chlorocebus sabaeus
HeLa = assay: Cytotoxicity counterscreen assay for transcriptional activators of heat shock protein 70 (Hsp70). [Related pubchem assays: 1203, 1252 ]; format: functional; conditions: Homo sapiens;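 further: cells exposed to compound for 16 hours before readout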
SUMO-activating enzyme [25] = biological target: T4, SUMO-activating enzyme (Homo sapiens, UniProt Q9UBT2); assay: blockers of SAE1/SAE2–UBC9 SUMO transfer – biochemical, HTRF, uHTS, primary screen (AID 2006); format: protein-complex assay
SUMO-activating enzyme [26] = biological target: T4, SUMO-activating enzyme; assay: blockers of UBC9-mediated SUMO conjugation – biochemical, AlphaScreen, SUMOylation inhibitor project, confirmation (AID 2018); format: functional
[27] = biological target: Induced myeloid leukemia cell differentiation protein Mcl-1 (Homo sapiens, UniProt Q07820); format: functional
[28] = CCR5-tropic HIV-1 fusion blockers – cell-based, CCR5-tropic Env, dose response (AID 2279); format: functional
[29] = biological target: T5, Calpain-2 catalytic subunit (Sus scrofa, UniProt P43367); assay: m-calpain protease blockers, concentration series – biochemical, fluorogenic peptide substrate, dose response (AID 1420); format: functional
T5 sequence (P43367 whole entry): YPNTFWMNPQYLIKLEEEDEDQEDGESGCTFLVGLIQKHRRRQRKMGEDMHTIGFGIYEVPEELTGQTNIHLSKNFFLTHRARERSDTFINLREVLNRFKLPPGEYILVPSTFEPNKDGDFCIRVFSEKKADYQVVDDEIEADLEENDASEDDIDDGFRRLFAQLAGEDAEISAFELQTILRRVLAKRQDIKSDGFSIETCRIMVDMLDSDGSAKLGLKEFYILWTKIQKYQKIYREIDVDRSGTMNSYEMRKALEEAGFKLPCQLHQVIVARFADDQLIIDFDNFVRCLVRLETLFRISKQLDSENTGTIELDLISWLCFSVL

[30] = biological target: T6, Alkaline phosphatase, tissue-nonspecific isozyme (Homo sapiens, UniProt P05186)
T6 sequence (P05186 whole entry): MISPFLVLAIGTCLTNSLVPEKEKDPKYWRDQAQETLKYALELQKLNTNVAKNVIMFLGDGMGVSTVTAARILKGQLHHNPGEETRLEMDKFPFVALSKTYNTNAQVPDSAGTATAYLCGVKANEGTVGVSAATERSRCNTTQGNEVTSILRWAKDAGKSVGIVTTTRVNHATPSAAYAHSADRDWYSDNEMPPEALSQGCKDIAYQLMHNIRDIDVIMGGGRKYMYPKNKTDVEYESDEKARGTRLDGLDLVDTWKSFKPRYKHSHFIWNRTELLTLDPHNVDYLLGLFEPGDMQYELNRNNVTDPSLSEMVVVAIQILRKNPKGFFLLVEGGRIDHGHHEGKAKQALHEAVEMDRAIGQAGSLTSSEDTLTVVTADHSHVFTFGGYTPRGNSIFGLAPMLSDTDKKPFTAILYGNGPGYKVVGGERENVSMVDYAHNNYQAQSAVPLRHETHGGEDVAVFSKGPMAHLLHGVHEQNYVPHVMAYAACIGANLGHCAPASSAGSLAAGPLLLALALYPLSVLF

[31] = biological target: Mothers against decapentaplegic homolog 3 (Homo sapiens, UniProt P84022); assay: blockers of Smad3 complex formation in lysate – cell lysate, secondary confirmation, chemiluminescent ELISA, HEK293 lysate, dose response (AID 1058); format: functional
Bcl-2-like protein 10 = Bcl-2-like protein 10 (Homo sapiens, UniProt Q9HD36); assay: Concentration-response of Bcl-B inhibitors by biochemical FP with TR3 (AID 1243); format: functional
Chain of Bcl-2-like protein 10 (Q9HD36 whole entry): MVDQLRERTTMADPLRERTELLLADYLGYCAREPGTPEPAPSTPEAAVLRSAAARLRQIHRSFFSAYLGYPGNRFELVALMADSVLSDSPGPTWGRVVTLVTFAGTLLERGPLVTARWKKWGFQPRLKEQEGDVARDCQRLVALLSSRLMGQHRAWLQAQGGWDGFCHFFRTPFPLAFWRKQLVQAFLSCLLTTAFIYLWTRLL

T4 sequence (Q9UBE0 whole entry): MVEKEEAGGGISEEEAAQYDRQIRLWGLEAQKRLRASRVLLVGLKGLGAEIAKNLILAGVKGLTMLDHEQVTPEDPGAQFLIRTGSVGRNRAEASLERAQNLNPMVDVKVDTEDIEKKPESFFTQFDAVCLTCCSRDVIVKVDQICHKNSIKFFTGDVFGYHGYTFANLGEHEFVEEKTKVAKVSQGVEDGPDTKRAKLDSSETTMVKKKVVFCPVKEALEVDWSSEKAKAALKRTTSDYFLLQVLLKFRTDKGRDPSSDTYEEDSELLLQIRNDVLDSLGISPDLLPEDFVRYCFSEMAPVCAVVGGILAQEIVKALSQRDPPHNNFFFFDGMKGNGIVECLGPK
T4 sequence (Q9UBT2 whole entry): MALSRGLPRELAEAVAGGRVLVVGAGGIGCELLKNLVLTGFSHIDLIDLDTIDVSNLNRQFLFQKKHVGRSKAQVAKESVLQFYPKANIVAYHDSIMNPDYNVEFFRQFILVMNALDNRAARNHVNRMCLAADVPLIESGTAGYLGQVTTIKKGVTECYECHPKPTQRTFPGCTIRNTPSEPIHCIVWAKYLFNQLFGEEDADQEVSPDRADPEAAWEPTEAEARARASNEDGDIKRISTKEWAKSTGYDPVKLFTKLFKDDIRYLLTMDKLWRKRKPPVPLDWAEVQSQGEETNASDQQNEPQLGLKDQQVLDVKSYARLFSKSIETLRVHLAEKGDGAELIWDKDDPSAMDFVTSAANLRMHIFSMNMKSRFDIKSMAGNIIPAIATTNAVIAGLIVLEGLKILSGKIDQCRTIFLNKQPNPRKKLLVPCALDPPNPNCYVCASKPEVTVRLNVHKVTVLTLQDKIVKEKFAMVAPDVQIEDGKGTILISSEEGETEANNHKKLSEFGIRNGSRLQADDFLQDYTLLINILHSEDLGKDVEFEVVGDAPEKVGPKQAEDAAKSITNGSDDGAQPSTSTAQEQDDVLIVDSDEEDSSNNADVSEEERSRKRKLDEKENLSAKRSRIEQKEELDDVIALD
T2 sequence (P41145 whole entry, the tested form may be a part): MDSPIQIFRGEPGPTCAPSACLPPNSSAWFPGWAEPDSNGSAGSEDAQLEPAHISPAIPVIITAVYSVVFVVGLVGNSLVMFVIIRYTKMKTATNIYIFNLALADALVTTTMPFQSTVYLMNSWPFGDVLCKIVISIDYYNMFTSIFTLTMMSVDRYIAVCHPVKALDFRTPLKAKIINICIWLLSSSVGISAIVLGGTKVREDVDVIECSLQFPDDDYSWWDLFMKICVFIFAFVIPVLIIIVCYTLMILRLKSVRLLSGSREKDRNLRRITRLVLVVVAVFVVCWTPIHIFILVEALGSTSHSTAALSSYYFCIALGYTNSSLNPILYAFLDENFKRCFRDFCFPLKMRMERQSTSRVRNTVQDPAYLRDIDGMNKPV
Chain of Neuropeptide Y receptor type 2 (P49146 whole entry): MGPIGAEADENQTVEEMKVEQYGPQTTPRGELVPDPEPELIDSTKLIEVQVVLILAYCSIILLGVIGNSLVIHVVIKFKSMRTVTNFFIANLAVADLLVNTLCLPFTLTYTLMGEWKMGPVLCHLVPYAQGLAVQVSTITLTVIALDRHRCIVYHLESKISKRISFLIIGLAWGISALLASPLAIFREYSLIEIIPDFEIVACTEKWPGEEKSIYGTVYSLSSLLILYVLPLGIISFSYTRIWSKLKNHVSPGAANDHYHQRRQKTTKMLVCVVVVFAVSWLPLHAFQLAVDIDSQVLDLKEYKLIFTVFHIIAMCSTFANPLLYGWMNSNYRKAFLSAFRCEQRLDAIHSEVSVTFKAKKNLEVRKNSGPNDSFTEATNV
Chain of Neuropeptide Y receptor type 1 (P25929 whole entry): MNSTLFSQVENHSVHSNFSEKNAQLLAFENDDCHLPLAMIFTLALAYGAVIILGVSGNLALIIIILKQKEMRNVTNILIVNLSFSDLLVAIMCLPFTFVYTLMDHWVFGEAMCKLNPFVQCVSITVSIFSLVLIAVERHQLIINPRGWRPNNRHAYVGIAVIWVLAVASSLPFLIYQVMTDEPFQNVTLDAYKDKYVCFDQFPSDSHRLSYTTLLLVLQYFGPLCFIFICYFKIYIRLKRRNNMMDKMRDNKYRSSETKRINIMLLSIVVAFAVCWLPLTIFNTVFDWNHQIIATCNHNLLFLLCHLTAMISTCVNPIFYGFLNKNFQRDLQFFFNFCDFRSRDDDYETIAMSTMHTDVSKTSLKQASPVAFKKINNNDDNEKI
Chain of Paired box protein Pax-8 (Q06710 whole entry): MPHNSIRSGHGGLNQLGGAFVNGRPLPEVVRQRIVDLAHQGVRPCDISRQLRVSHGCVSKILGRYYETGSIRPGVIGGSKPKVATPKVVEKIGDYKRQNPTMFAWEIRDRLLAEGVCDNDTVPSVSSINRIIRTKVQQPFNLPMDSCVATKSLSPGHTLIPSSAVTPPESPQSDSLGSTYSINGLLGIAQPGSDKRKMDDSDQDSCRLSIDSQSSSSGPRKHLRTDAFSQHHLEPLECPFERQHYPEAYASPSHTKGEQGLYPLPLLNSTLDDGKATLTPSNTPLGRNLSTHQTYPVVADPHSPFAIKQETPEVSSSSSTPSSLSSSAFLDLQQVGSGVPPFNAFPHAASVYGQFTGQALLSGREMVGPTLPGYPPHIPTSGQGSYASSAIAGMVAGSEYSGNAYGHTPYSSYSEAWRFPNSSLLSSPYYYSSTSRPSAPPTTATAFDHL
Chain of Luciferin 4-monooxygenase (P08659 whole entry): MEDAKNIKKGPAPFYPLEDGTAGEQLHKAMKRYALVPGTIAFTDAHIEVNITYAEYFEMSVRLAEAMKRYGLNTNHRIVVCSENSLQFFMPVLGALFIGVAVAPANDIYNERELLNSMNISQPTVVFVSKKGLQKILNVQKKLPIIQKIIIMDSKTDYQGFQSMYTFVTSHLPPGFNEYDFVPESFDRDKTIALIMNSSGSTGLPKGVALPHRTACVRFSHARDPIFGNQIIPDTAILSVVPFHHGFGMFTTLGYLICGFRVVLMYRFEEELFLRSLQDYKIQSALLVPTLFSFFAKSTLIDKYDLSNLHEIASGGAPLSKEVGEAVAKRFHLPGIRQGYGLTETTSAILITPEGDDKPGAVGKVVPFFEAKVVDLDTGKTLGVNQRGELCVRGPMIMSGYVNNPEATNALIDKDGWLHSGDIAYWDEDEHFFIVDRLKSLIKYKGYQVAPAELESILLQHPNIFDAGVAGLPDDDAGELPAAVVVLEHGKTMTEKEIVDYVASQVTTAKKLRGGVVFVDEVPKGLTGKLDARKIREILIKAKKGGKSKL
Chain of Induced myeloid leukemia cell differentiation protein Mcl-1 (Q07820 whole entry, the tested form may be a part): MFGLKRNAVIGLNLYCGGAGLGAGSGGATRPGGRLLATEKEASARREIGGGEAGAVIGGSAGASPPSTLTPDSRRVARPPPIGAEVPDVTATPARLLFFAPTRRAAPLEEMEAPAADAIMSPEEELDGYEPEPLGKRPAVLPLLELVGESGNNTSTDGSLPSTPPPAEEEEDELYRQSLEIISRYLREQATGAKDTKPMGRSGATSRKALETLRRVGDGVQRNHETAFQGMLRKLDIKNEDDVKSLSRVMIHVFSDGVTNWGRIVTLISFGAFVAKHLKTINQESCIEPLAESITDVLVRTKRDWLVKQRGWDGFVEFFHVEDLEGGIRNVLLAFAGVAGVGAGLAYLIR
Chain of Mothers against decapentaplegic homolog 3 (P84022 whole entry): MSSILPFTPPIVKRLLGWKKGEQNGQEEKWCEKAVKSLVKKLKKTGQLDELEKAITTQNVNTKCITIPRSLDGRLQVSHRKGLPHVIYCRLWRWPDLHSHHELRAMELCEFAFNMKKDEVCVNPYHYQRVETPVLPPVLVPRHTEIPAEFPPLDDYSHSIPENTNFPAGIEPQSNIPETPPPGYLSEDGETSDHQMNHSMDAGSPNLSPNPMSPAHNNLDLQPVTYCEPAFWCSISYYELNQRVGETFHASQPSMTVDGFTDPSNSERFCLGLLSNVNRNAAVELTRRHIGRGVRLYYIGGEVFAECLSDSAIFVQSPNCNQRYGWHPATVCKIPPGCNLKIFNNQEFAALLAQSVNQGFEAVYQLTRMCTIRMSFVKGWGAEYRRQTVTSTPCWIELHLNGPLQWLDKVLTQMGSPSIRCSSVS
Chain of Beta Lactamase (Q932Y6 whole entry): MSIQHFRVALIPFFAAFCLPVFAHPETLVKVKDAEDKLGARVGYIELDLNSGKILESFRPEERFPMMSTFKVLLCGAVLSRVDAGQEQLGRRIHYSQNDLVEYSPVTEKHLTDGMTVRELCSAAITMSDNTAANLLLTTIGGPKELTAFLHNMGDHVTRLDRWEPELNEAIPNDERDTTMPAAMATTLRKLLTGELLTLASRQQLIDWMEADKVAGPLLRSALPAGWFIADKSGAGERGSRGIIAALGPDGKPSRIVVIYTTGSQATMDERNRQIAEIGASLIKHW

SMILES: N#CC(C#N)=C1C=CC=CN1/C(=C\c1ccco1)C(=O)c1ccc(Cl)cc1
- IC50 [1]: 3.06 µM (active)
- IC50 [2]: 121 µM (active)
- CC50 [3]: 100 µM (active)
- IC50 [4]: 4.08 µM (active)
- EC50 (Beta-galactosidase): > 31.5 µM (inactive)
- IC50 (Beta Lactamase): 45.9 µM (inactive)
- IC50 [5]: 3.64 µM (active)
- IC50 [6]: 1.13 µM (active)
- pIC50 [7]: 4.78
- AC50 [8]: 6.85 µM (active)

SMILES: CCc1nnc(NC(=O)c2ccc(OC)cc2OC)s1
- EC50 [9]: > 100 µM (not active)
- EC50 (HT-1080): > 50 µM (not active)

SMILES: CCCOc1ccc(C2NC(S)=NC(c3ccccc3)=C2C(=O)Nc2ccc(C)cc2)cc1OC (stereo not drawn)
- EC50 [10]: > 100 µM (active)

SMILES: C[C@@H]1O[C@@H](O[C@H]2C[C@@H](O)[C@]3(CO)[C@H]4[C@H](O)C[C@]5(C)[C@@H](C6COC(=O)C6)CC[C@]5(O)[C@@H]4CC[C@]3(O)C2)[C@H](O)[C@H](O)[C@H]1O (stereo partly drawn)
- IC50 [11]: > 39.8 µM (not active)
- EC50 (BJ [12]): 0.405 µM (inconclusive)
- EC50 (BJ [13]): 4.77 µM (inconclusive)
- EC50 [14]: 0.44 µM (active)
- EC50 (BJ [15]): 2.78 µM (inconclusive)
- EC50 (BJ [16]): 0.39 µM (active)
- EC50 [17]: 0.132 µM (active)
- CC50 (Vero [18]): 4.84 µM (active)
- EC50 [19]: 0.251 µM (active)
- EC50 [20]: 0.102 µM (active)
- AC50 [21]: 1.28 µM (active)
- AC50 ([21]; Homo sapiens): 1.46 µM (active)
- IC50 [22]: > 80 µM (inactive)
- IC50 (Vero [23]): < 0.05 µM (active)
- AC50 (Paired box protein Pax-8): 5.38 µM (active)
- CC50 (Vero [24]): 1.91 µM (active)

SMILES: Cc1cc(C)nc(SCc2nnc(SCC(=O)Nc3cc(C(F)(F)F)ccc3Cl)o2)n1
- CC50 (HeLa): > 99 µM (not active)

SMILES: O=[N+]([O-])c1cccc(S(=O)(=O)Nc2nc3ccccc3nc2Nc2cccc(S(=O)(=O)N3CCCCC3)c2)c1
- IC50 (SUMO-activating enzyme [25]): 20.1 µM (active)
- IC50 (SUMO-activating enzyme [26]): 4.59 µM (active)
- IC50 [27]: 5.85 µM (active)
- IC50 [28]: 6.03 µM (active)
- IC50 [29]: 4.49 µM (not active)

SMILES: COCCNC(=O)CCC(=O)NNc1nc2ccccc2c2nc(-c3ccccc3)nn12
- EC50 [30]: 82 µM (not active)

SMILES: COc1ccc(C(c2cc3c(cc2O)OCO3)N2CCCC2)cc1 (stereo not drawn)
- IC50 [31]: 14.6 µM (not active)

SMILES: COc1ccc(OC)c(C=NNC(=O)c2cc[n+](CC(=O)c3ccccc3)cc2)c1
- EC50 (Bcl-2-like protein 10): 1.35 µM (active)
